The record followed here is patent US10221178B2, “Purine inhibitors of human phosphatidylinositol 3-kinase delta” (MERCK SHARP & DOHME CORP., priority 2015, dated 2019).

Where only a bound is given, the exact number is not on record here.

In one experiment the target is PI3Kalpha (Homo sapiens (Human), UniProt P42336). Briefly: HTRF PI3K biochemical assay, alpha isoform (selectivity versus PI3Kalpha). As to conditions: relative ratio (PI3K-alpha IC50 value/PI3K-delta IC50 value); form screened: Neutral. An excerpt: (§1) HTRF PI3K Biochemical Assay to Measure Intrinsic Potency of Compound Inhibitors
Chain of PI3Kalpha (P42336 whole entry, canonical isoform): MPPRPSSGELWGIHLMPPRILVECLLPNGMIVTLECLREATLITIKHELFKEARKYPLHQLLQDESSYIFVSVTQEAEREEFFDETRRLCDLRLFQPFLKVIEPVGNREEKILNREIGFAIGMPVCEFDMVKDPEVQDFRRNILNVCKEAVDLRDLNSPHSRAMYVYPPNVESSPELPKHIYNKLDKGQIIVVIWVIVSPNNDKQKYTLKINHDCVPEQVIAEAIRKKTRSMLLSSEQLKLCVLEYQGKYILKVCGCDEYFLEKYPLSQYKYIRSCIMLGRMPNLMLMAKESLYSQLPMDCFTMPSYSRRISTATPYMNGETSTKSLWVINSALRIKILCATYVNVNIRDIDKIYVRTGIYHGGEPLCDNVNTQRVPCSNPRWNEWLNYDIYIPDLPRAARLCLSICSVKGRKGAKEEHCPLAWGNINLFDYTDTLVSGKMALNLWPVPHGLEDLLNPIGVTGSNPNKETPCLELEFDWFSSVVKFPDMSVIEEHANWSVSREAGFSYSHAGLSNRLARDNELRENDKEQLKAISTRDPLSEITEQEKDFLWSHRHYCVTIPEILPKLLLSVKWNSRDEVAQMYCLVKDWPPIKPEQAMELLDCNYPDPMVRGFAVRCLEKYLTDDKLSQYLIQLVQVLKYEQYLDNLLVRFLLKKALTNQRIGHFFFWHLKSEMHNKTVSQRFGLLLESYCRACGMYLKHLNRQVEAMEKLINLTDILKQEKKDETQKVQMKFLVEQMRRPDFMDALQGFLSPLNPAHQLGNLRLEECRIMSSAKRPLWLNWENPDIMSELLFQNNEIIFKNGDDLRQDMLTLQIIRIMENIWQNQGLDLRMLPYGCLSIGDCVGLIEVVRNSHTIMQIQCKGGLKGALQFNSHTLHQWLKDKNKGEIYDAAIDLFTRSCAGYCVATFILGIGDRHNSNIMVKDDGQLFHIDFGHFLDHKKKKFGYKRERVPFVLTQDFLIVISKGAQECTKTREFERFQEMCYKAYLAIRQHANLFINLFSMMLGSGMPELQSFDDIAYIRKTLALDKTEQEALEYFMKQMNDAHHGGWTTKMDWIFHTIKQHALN
Chain of PI3Kalpha (P27986 whole entry partner, canonical isoform): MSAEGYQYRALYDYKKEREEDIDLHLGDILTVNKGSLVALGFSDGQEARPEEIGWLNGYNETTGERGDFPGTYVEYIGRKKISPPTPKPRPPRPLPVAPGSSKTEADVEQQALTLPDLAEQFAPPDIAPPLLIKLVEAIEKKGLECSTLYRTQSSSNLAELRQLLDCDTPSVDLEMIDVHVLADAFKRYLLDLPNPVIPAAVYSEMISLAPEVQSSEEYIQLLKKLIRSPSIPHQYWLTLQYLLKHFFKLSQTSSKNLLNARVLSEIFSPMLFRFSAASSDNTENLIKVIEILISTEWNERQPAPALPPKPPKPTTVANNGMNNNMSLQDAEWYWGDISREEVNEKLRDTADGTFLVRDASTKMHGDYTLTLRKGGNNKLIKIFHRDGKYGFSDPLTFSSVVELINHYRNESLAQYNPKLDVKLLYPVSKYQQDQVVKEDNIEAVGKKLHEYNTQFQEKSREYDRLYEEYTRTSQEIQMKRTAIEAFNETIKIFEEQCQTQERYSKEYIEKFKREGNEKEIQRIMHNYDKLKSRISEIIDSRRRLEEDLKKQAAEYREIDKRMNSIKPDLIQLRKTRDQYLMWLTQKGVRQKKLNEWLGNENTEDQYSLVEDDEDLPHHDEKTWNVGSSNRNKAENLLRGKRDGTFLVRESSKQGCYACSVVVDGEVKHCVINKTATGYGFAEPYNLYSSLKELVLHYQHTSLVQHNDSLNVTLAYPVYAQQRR
(§2) The PI3-Kinase biochemical assays were developed to measure the intrinsic potency and compound dependent inhibition of the alpha, beta, delta, and gamma PI3K isoform enzymes.
(§3) This assay was developed and further optimized from a kit produced by Upstate (Millipore catalog #33-047) and has been configured for HTS (high throughput screening) and SAR screening. Briefly, this procedure exploits the exquisite specificity and high affinity binding of enzyme reaction substrate phosphatidyl(3,4,5)triphosphate (PIP3) to the GRP1 pleckstrin homology (PH) domain to generate the signal. In the absence of PIP3, an HTRF (Homogeneous Time-Resolved Fluorescence energy transfer) complex is formed consisting of europium (Eu)-labeled anti-GST, GSTtagged GRP1-PH domain, biotin-PIP3 and streptavidin conjugated APC. The native PIP3 produced by PI3-Kinase activity disrupts in a competitive manner the biotin-PIP3 from the PH domain, resulting in the loss of energy transfer (HTRF complex) and a decrease in the signal. The format of this assay is the same for all 4 isoforms of PI3K; the differences lie in the concentration of enzyme used to achieve robust assay window. The alpha, beta, and delta assays are run at 0.5, 1, and 0.3 nM enzymes and the gamma assay is run at 5 nM enzyme. The ATP concentration is 100 uM in the alpha, beta, and delta assays and 50 uM ATP in the gamma assay. All reactions are run at 5 uM PIP2.
(§4) Compounds are serially diluted (3-fold in 100% DMSO) across a 384-well polypropylene source plated from column 3 to column 12 and column 13 to column 22, to yield 10 concentration dose response for each test compound. Columns 1, 2, 23 and 24 contain either only DMSO or pharmacological known control inhibitor. Once titrations are made, 2.5 nL of the compounds on 384 well plates are reformatted and transferred by acoustic dispense in quadruplicates to a 1536 assay plate (Greiner) to assay across all four PI3K isoform enzymes.
(§5) The PI3-Kinase biochemical assay was optimized using the HTRF kit provided by Upstate (Millipore). The assay kit contains six reagents: 1) 4× Reaction Buffer; 2) native PIP2 (substrate); 3) Stop (EDTA); 4) Detection Mix A (Streptavidin-APC); 5) Detection Mix B (Eu-labeled Anti-GST plus GST-tagged PH-domain); 6) Detection Mix C. In addition, the following items were obtained or purchased; PI3Kinase (alpha 14-602, beta 14-603, gamma 14-558 and delta 14-604 from Upstate; Millipore), dithiothreitol (Sigma, D-5545), Adenosine-5′ triphosphate (InVitrogen, Cat#AS001A), native PIP3 (PI(3,4,5)P3, diC8, H^+, CELLSIGNALS, INC. Cat #907) DMSO (Sigma, 472301).
PI3Kinase Reaction Buffer is prepared by dilution the stock 1:4 with de-ionized water. DTT, PIP2 and Biotin-PIP3 were added to 1536 assay plate at a final concentration of 5 mM, […] on the day of use. Enzyme addition and compound pre-incubation are initiated by the addition of 1.25 ul of PI3K (at twice its final concentration) in the 1× reaction buffer to all wells using a BioRaptor. Plates are incubated at RT for 15 minutes. Reactions are initiated by addition of 1.25 ul of 2× substrate solution (PIP2 and ATP in 1× reaction buffer) using BioRaptor. Plates are incubated in humidified chamber at RT for one hour. Reactions are quenched by addition of 0.625 uL of stop solution to all wells using the BioRaptor. The quenched reactions are then processed to detect product formation by adding 0.625 uL of Detection Solution to all wells using the BioRaptor (Detection mix C, Detection Mix A, and Detection Mix B combined together in an 18:1:1 ratio prepared 2 hours prior to use). Following a one hour incubation in the dark, the HTRF signal is measured on the Envision plate reader set for 330 nm excitation and dual emission detection at […]. […]

Another experiment addresses PI3Kdelta (Homo sapiens (Human), UniProt O00329). Briefly: HTRF PI3K biochemical assay, delta isoform. As to conditions: 0.3 nM enzyme, 100 uM ATP, 5 uM PIP2, form screened: Neutral.
Description: as §1, §2, §3, §4, §5
PI3Kinase Reaction Buffer is prepared by dilution the stock 1:4 with de-ionized water. DTT, PIP2 and Biotin-PIP3 were added to 1536 assay plate at a final concentration of 5 mM, […] on the day of use. Enzyme addition and compound pre-incubation are initiated by the addition of 1.25 ul of PI3K (at twice its final concentration) in the 1× reaction buffer to all wells using a BioRaptor. Plates are incubated at RT for 15 minutes. Reactions are initiated by addition of 1.25 ul of 2× substrate solution (PIP2 and ATP in 1× reaction buffer) using BioRaptor. Plates are incubated in humidified chamber at RT for one hour. Reactions are quenched by addition of 0.625 uL of stop solution to all wells using the BioRaptor. The quenched reactions are then processed to detect product formation by adding 0.625 uL of Detection Solution to all wells using the BioRaptor (Detection mix C, Detection Mix A, and Detection Mix B combined together in an 18:1:1 ratio prepared 2 hours prior to use). Following a one hour incubation in the dark, the HTRF signal is measured on the Envision plate reader set for 330 nm excitation and dual emission detection at 620 nM (Eu) and 665 nM (APC).

Chain of PI3Kdelta (O00329 whole entry, canonical isoform): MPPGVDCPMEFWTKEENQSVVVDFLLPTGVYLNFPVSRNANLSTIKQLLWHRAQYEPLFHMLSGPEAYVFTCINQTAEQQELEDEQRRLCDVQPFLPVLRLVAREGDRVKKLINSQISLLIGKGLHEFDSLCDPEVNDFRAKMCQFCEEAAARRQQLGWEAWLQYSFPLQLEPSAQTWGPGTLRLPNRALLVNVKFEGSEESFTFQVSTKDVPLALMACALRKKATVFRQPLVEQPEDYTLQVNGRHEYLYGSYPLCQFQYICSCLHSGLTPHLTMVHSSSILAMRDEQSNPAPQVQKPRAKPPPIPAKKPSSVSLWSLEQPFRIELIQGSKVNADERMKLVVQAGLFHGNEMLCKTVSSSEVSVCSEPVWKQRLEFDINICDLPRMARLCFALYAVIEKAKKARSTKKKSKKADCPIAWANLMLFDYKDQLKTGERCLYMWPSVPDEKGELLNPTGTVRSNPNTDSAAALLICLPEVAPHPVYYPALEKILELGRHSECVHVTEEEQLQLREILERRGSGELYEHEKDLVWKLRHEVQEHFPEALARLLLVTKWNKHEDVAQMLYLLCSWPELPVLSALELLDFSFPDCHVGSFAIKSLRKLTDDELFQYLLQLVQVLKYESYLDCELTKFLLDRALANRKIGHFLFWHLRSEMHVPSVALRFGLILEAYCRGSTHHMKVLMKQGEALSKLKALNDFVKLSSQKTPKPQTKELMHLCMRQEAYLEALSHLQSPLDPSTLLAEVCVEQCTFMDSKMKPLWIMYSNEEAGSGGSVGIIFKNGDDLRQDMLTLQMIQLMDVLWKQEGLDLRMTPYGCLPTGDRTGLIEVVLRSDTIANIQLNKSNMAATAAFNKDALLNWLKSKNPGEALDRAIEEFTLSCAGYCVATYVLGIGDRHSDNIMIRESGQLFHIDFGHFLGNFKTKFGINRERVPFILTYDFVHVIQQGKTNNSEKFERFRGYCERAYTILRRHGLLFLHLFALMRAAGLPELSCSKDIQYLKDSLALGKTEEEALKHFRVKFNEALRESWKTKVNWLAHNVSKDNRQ
Chain of PI3Kdelta (P27986 whole entry partner, canonical isoform): as the sequence (P27986 whole entry partner, canonical isoform) above

Usually IC50 stands for the point on the concentration scale where inhibition reaches its midpoint. Low values mean inhibition by little substance, high ones a need for much substance. Take `CCn1c(-c2cnc(C)nc2)nc2c(N[C@H](CC(=O)N3C[C@@H](C)O[C@@H](C)C3)c3ccccc3)ncnc21` [Compound 2-56, N-{(1R)-3-[(cis)-2,6-dimethylmorpholin-4-yl]-3-oxo-1-phenylpropyl}-9-ethyl-8-(2-methylpyrimidin-5-yl)-9H-purin-6-amine]: the “Selectivity versus PI3Kalpha” value on PI3Kalpha is given as over 10. The compound also returned an IC50 on PI3Kdelta of 610 nM.
As to `CC[C@H](Nc1ncnc2c1nc(-c1cnc(C)nc1)n2CC)C(=O)N1CCOC2(CC2)C1` [Compound 2-29, 9-ethyl-8-(2-methylpyrimidin-5-yl)-N-[(1S)-1-(4-oxa-7-azaspiro[2.5]oct-7-ylcarbonyl)propyl]-9H-purin-6-amine], on PI3Kalpha, the “Selectivity versus PI3Kalpha” value is over 10. At PI3Kdelta, this compound showed an IC50 of 11 nM.
The corresponding values for `CCn1c(-c2cnc(C)nc2)nc2c(N[C@H](C(=O)N3C[C@@H](C)O[C@@H](C)C3)c3ccccc3)ncnc21` [Compound 2-43, N-{(1S)-2-[(cis)-2,6-dimethylmorpholin-4-yl]-2-oxo-1-phenylethyl}-9-ethyl-8-(2-methylpyrimidin-5-yl)-9H-purin-6-amine] are over 10 and 87 nM.
The corresponding values for `CCn1c(-c2cnc(C)nc2)nc2c(N[C@H](C(=O)N3C[C@@H](C)O[C@@H](C)C3)C(C)(C)O)ncnc21` [Compound 2-50, (3S)-4-[(cis)-2,6-dimethylmorpholin-4-yl]-3-{[9-ethyl-8-(2-methylpyrimidin-5-yl)-9H-purin-6-yl]amino}-2-methyl-4-oxobutan-2-ol] are over 10 and 8.7 nM.
The corresponding values for `CC[C@H](Nc1ncnc2c1nc(-c1cnc(C)nc1)n2CC)C(=O)N1CCCC(OC)CC1` (mixture of isomers) [Compound 2-9, 9-ethyl-N-{(1S)-1-[(4-methoxyazepan-1-yl)carbonyl]propyl}-8-((R and S)-2-methylpyrimidin-5-yl)-9H-purin-6-amine] are over 10 and 23 nM.
`CC[C@H](Nc1ncnc2c1nc(-c1cnc(C)nc1)n2CC)C(=O)N1C[C@@H]2C[C@H]1CO2` [Compound 2-31, 9-ethyl-8-(2-methylpyrimidin-5-yl)-N-{(1S)-1-[(1S,4S)-2-oxa-5-azabicyclo[2.2.1]hept-5-ylcarbonyl]propyl}-9H-purin-6-amine]: the “Selectivity versus PI3Kalpha” value at PI3Kalpha is on record as over 10. At PI3Kdelta, inhibition was half-maximal at 37 nM (IC50).
As for `CCn1c(-c2cnc(C)nc2)nc2c(N[C@@H](CO)C(=O)N3C[C@@H](C)O[C@@H](C)C3)ncnc21` [Compound 2-47, (2S)-3-[(cis)-2,6-dimethylmorpholin-4-yl]-2-{[9-ethyl-8-(2-methylpyrimidin-5-yl)-9H-purin-6-yl]amino}-3-oxopropan-1-ol], the “Selectivity versus PI3Kalpha” value at PI3Kalpha was over 10. Further, half-maximal inhibition on PI3Kdelta (IC50) required 12 nM.
Consider `CC[C@H](Nc1ncnc2c1nc(-c1cnc(C)nc1)n2CC)C(=O)N1CCOCC1(C)C` [Compound 2-34, N-{(1S)-1-[(3,3-dimethylmorpholin-4-yl)carbonyl]propyl}-9-ethyl-8-(2-methylpyrimidin-5-yl)-9H-purin-6-amine], for which, at PI3Kalpha, the “Selectivity versus PI3Kalpha” value was over 10. The compound further showed an IC50 on PI3Kdelta of 12 nM.
On to `CCn1c(-c2cnc(C)nc2)nc2c(N[C@@H](CC(C)C)C(=O)N3C[C@@H](C)O[C@@H](C)C3)ncnc21` [Compound 2-44, N-[(1S)-1-{[(cis)-2,6-dimethylmorpholin-4-yl]carbonyl}-3-methylbutyl]-9-ethyl-8-(2-methylpyrimidin-5-yl)-9H-purin-6-amine], for which the “Selectivity versus PI3Kalpha” value at PI3Kalpha is listed as over 10. Further, the IC50 against PI3Kdelta worked out at 140 nM.
Regarding `CCn1c(-c2cnc(C)nc2)nc2c(N[C@@H](C)CC(=O)N3CCCC3)ncnc21` [Compound 2-59, 9-ethyl-N-[(1S)-1-methyl-3-oxo-3-pyrrolidin-1-ylpropyl]-8-(2-methylpyrimidin-5-yl)-9H-purin-6-amine], the “Selectivity versus PI3Kalpha” value on PI3Kalpha is listed as over 10. The IC50 at PI3Kdelta is 63 nM.
